Experimental data taken from patent publication US20230055961A1, “PENTAFLUOROBENZENESULFONAMIDE DERIVATIVES AND USES THEREOF” (Dunad Therapeutics Ltd., priority 2019, published 2023).

Assays:
tubulin = test: In vitro % inhibition of tubulin polymerization (Table 12; absorbance at 340 nm, Vmax); format: biochemical
Method: A 96-well half-area clear flat-bottom microplate (Corning© #3697) is pre-heated in a plate reader (Cytation 3, BioTek) at 37° C. for 15 minutes prior to the start of each assay. Kinase buffer (80 mM PIPES pH 6.9, 2 mM MgCl2, 0.5 mM EGTA, 15% glycerol, 1 mM GTP) is prepared from stock solutions and placed on ice. Inhibitors of this application are prepared to 10 μM concentrations in buffer (80 mM PIPES pH 6.9, 2 mM MgCl2, 0.5 mM EGTA, 5% DMSO) from DMSO stock solutions. After the assay plate is pre-warmed, 10 μL of inhibitor or buffer control is added to selected wells. Every assay contained a kinase only negative control for normalization of data, and a known compound positive control. The assay plate is incubated at 37° C. for 3 minutes. During this time, a frozen aliquot of the kinase (10 mg/mL) in buffer (80 mM PIPES pH 6.9, 2 mM MgCl2, 0.5 mM EGTA) is defrosted by placing in a room temperature water bath. Once thawed, 200 μL of the kinase is mixed with 420 μL of the ice-cold kinase buffer (3 mg/mL kinase in 80 mM PIPES, pH 6.9, 2 mM MgCl2, 0.5 mM EGTA, 1 mM GTP, 10.2% glycerol). To a 96-well plate on ice, aliquots of 100 μL kinase is added to each well. From this plate, 90 μL of the kinase is immediately pipetted into all sample wells of the warmed assay plate using a multi-channel pipette. The assay plate is immediately put in the reader at 37° C. and shook for 5 s with orbital shaking at medium speed. The reader records the absorbance at 340 nm every 15 s for 30 min.
The resulting absorbance curves are normalized by subtracting each data point by the absorbance at time 0.

MV-4-11 = test: In vitro IC50 against human cancer cells (Table 11), MV-4-11; format: cell-based; conditions: MV4-11, read-out: Human cancer cell lines (IC50, μM) MV-4-11
MOLM-13 = test: In vitro IC50 against human cancer cells (Table 11), MOLM-13; format: cell-based; conditions: read-out: Human cancer cell lines (IC50, μM) MOLM-13
BMX = biological target: T1, BMX (Homo sapiens, UniProt P51813); test: In vitro kinase inhibition studies (Table 9), BMX; format: biochemical
T1 sequence (P51813 1-675): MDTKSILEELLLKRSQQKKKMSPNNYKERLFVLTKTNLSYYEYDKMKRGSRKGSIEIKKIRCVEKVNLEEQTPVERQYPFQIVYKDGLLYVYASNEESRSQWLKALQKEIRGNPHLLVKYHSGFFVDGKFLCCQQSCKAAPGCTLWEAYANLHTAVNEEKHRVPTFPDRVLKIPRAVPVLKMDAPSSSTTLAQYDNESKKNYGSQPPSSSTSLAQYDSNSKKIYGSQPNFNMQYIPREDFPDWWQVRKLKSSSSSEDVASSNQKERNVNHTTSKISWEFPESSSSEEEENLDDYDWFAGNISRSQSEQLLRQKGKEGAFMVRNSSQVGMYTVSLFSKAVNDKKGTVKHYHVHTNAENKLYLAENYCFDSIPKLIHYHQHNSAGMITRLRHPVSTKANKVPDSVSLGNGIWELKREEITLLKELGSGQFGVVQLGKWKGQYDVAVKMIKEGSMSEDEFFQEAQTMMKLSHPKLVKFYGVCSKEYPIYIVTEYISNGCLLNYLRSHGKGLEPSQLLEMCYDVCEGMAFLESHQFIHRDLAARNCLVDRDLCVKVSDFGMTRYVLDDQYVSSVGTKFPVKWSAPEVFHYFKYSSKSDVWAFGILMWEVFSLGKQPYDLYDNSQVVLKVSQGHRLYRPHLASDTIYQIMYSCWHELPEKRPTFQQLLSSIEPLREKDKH

K562 = test: In vitro IC50 against human cancer cells (Table 11), K562; format: cell-based; conditions: read-out: Human cancer cell lines (IC50, μM) K562
FGFR4 = FGFR4 (Homo sapiens, UniProt P22455); test: In vitro kinase inhibition studies (Table 9), FGFR4; format: biochemical
FGFR4, sequence (P22455 22-802, species assumed): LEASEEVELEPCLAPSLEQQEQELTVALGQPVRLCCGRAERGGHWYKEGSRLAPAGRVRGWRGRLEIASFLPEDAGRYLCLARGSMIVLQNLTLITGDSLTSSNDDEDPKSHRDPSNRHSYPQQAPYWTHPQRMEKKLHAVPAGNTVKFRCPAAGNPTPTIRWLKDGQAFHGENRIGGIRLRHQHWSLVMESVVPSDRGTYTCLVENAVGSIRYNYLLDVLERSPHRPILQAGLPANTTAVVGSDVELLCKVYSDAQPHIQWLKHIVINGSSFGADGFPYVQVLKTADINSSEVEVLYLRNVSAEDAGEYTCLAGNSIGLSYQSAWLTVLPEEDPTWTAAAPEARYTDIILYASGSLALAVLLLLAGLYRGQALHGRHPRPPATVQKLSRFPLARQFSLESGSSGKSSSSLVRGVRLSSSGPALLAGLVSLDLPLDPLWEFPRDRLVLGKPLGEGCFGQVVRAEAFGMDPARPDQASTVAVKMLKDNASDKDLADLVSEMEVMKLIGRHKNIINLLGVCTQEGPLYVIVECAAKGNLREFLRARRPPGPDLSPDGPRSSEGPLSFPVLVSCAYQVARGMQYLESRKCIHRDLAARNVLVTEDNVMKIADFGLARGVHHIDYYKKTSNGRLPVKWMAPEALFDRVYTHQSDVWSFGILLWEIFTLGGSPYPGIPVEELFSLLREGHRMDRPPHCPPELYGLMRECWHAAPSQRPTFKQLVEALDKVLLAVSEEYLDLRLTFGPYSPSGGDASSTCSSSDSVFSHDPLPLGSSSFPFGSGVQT

FGFR1 = FGFR1 (Homo sapiens, UniProt P11362); test: In vitro kinase inhibition studies (Table 9), FGFR1; format: biochemical
FGFR1, sequence (P11362 22-822, species assumed): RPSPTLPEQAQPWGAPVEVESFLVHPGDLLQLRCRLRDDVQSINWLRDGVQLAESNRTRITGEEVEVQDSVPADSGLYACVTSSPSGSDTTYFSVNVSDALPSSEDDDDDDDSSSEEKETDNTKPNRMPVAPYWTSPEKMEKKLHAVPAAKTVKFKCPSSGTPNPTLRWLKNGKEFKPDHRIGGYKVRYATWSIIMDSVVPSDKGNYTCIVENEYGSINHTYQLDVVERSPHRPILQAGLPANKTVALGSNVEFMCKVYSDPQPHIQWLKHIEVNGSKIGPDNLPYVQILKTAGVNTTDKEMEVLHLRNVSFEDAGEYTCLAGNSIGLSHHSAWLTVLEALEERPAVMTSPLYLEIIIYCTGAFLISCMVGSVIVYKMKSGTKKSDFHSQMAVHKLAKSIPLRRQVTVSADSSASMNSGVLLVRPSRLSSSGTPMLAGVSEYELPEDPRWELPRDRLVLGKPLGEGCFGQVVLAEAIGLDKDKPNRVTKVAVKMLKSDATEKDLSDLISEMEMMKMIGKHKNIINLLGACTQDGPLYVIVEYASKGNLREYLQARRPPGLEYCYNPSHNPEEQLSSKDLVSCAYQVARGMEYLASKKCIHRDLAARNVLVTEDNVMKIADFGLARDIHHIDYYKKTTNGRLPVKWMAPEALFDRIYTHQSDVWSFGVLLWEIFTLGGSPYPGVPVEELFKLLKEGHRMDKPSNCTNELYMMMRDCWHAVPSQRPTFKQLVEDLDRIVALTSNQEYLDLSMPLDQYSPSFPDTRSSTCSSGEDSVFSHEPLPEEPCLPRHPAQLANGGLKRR

[1] = biological target: T2, His-tagged BTK kinase domain (Homo sapiens, UniProt Q06187); test: Mass spectral analysis of tryptic digest of His-tagged BTK kinase domain (MSMS of modified peptides); format: binding; conditions: 10 μM compound, 45 min; for C481 labelled by test compound (tryptic digest peptide): cysteine 481
T2 construct: pET-28b(+)-BTK (402-655) vector; made in house; host or cells: E. coli BL21 (DE3) RILP
T2 sequence (Q06187 402-655): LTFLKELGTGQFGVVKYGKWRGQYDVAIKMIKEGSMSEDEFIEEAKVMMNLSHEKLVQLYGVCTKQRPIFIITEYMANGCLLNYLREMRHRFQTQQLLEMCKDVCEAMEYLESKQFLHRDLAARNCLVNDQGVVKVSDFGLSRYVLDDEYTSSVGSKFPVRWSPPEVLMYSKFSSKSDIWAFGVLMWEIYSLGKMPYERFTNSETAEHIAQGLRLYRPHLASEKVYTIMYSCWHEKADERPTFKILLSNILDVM
Method: A protein kinase that is inhibited by compound and/or pharmaceutically acceptable salt of the present disclosure may be subjected to mass spectral analysis to assess the formation of permanent, irreversible covalent adducts. […] Such methods identify permanent, irreversible covalent protein adducts by observing a mass peak that corresponds to the mass of a control sample plus the mass of an irreversible adduct.
The starter cultures were incubated with shaking at 37° C. until cloudy and used to inoculate 1 L of Super broth containing same concentrations of kanamycin and chloramphenicol, 10 mM MgSO4, 5 mM CaCl2), and 0.1% (w/v) glucose. The cultures were incubated under similar conditions to an OD600 of 0.6-0.8. Before induction with 0.5 mM IPTG, the temperature was reduced to 16° C. The cells were harvested by centrifugation following approximately 18 h and frozen in a −80° C. freezer until use.
Cells were thawed in lysis buffer (50 mM HEPES [pH 7.6], 300 mM NaCl, 10 mM MgCl2, 10% [v/v] glycerol, 0.1 mg/mL lysozyme, 50 μg/mL DNase I, and protease inhibitors). Cells were sonicated (30 s on, 60 s off) for 3 repeating cycles. The cell lysates were cleared by centrifugation at 4° C. […] This eluant was cleaved with Ulp1 protease and loaded onto a S200 Superdex FPLC column (GE healthcare) pre-equilibrated with 20 mM HEPES pH 7.4, 150 mM NaCl, and 10% [v/v] glycerol. Pure fractions of His-tagged BTK kinase domain, as judged by SDS-PAGE, were pooled and concentrated using Amicon 10 kDa cutoff concentrators and after aliquoting stored at −80 C until use.
After the incubation time, the reactions were quenched by acetone precipitation and the pellet was re-dissolved in 8 M Urea. The protein was then reduced (5 mM DTT), alkylated (15 mM iodoacetamide) and digested (1 μg trypsin at 37° C. for 4 hours). The digest was then stopped by addition of trifluoroacetic acid, and peptides were removed from gel band by sonicating with increasing amounts of acetonitrile (0%, 30%, & 60%). Peptides were then purified using C18 ziptips, spotted on the MALDI target plate with a-cyano-4-hydroxycinnamic acid as the desorption matrix (10 mg/ml in 0.1% TFA: Acetonitrile 50:50), and analyzed in reflectron mode.

BTK = BTK (Homo sapiens, UniProt Q06187); test: In vitro BTK inhibition, biochemical IC50 (no preincubation); conditions: Table 7
BTK, sequence (Q06187 whole entry, species assumed): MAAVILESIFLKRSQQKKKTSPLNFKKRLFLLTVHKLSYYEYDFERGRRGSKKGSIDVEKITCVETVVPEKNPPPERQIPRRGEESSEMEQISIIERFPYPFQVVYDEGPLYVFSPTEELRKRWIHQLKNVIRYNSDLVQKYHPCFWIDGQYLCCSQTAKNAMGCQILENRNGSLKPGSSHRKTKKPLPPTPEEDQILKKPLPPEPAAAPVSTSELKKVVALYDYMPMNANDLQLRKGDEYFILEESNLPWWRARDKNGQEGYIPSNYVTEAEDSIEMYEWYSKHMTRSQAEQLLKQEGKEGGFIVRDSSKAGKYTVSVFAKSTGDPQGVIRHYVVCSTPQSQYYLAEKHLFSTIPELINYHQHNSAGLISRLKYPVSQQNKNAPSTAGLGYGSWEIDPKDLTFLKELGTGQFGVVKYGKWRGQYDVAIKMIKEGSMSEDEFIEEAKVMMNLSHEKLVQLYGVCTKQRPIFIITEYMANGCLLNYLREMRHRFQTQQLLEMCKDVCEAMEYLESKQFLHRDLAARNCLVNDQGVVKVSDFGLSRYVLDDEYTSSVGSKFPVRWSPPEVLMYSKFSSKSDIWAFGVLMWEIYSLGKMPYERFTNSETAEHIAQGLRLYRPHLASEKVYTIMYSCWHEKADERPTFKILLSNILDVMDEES
Method: IC50 Values (nM) for the Inhibition of BTK Activity
In vitro BTK and JAK3 inhibition studies are shown in Table 7 and Table 8 (no preincubation).

RL cells = test: IC50 of Ibrutinib analogs against human cancer cells, RL cells (Table 14); format: cell-based; conditions: Homo sapiens, RL, Table 14; RL human non-Hodgkin's lymphoma B cell line; read-out: RL (IC50)
Method: 1×10^4 cells (NHF cells)/well are plated in 96-well assay plates in culture medium. […] After 24 hrs, test compounds and vehicle controls are added to appropriate wells so the final volume is 100p in each well. The cells are cultured for the desired test exposure period (72 hrs) at 37° C. and 5% CO2. The assay plates are removed from 37° C. incubator and 20 μl/well of CellTiter-Blue® Reagent is added. The plates are incubated using standard cell culture conditions for 1-4 hours and the plates are shaken for 10 seconds and record fluorescence at 560/590 nm. […] Therapeutic index=(IC50 human fibroblasts/IC50 […] )

[2] = 10 μM His-BTK KD, tryptic digest MSMS

Question: `O=S(=O)(Nc1ccc(OC(F)F)c(F)c1)c1c(F)c(F)c(F)c(F)c1F` [Compound 4-4, N-(4-(difluoromethoxy)-3-fluorophenyl)-2,3,4,5,6-pentafluorobenzenesulfonamide] was tested. Which “% inhibition of tubulin polymerization” value (tubulin) did it give?
Answer: B (B: 10-20%)

Question: And the IC50 (MV-4-11)?
Answer: 0.1 to 10 µM

Question: And the IC50 (MOLM-13)?
Answer: 0.1 to 10 µM

Question: For `N#Cc1ccc(NS(=O)(=O)c2c(F)c(F)c(F)c(F)c2F)cc1F` [Compound 4-5, N-(4-cyano-3-fluorophenyl)-2,3,4,5,6-pentafluorobenzenesulfonamide], which IC50 (MV-4-11) is on record?
Answer: 10 to 100 µM

Question: How did the IC50 (BMX) turn out when `COCCOc1ccc(Nc2ncc(F)c(Nc3cccc(N(C)S(=O)(=O)c4c(F)c(F)c(F)c(F)c4F)c3)n2)cc1` [Compound 5-17, 2,3,4,5,6-pentafluoro-N-(3-((5-fluoro-2-((4-(2-methoxyethoxy)phenyl)amino)pyrimidin-4-yl)amino)phenyl)-N-methylbenzenesulfonamide] was run?
Answer: 0.0001 to 0.01 µM

Question: How did the IC50 (K562) turn out when `COc1ccc(N(C)S(=O)(=O)c2c(F)c(F)c(F)c(F)c2F)cc1F` [Compound 4-12, 2,3,4,5,6-pentafluoro-N-(3-fluoro-4-methoxyphenyl)-N-methylbenzenesulfonamide] was run?
Answer: 0.1 to 10 µM

Question: `COCCOc1ccc(Nc2ncc(F)c(NCCNS(=O)(=O)c3c(F)c(F)c(F)c(F)c3F)n2)cc1` [Compound 5-13, 2,3,4,5,6-pentafluoro-N-(2-((5-fluoro-2-((4-(2-methoxyethoxy)phenyl)amino)pyrimidin-4-yl)amino)ethyl)benzenesulfonamide] was tested. Which IC50 (FGFR4) did it give?
Answer: > 2 µM

Question: What about the IC50 (FGFR1) of the same compound?
Answer: > 2 µM

Question: And the “amino acid of BTK modified by one equivalent of compound” value [1, 2]?
Answer: Cys-481

Question: And the “observed mass of modified tryptic peptide” value [1, 2]?
Answer: 3059.4 Da

Question: What about the “C481 labelled by test compound (tryptic digest peptide)” value ([1]; 10 μM BTK KD) of the same compound?
Answer: ✓

Question: Which IC50 (BTK) does the source give for `Nc1ncnc2c1c(-c1ccc(Oc3ccccc3)cc1)nn2[C@@H]1CCN(S(=O)(=O)c2c(F)c(F)c(F)c(F)c2F)C1` [Compound 5-5, (R)-1-(1-((perfluorophenyl)sulfonyl)pyrrolidin-3-yl)-3-(4-phenoxyphenyl)-1H-pyrazolo[3,4-d]pyrimidin-4-amine] here?
Answer: 0.0001 to 0.01 µM

Question: With `O=S(=O)(Nc1ccc(O)c(F)c1)c1c(F)c(F)c(F)c(F)c1F` [Compound 4-3, 2,3,4,5,6-pentafluoro-N-(3-fluoro-4-hydroxyphenyl)benzenesulfonamide] as the compound, how does the “% inhibition of tubulin polymerization” value (tubulin) read?
Answer: A (A: < 10%)

Question: What about the IC50 (MV-4-11) of the same compound?
Answer: 0.1 to 10 µM

Question: How did the “% inhibition of tubulin polymerization” value (tubulin) turn out when `COc1ccc(NS(=O)(=O)c2c(F)c(F)c(F)c(F)c2F)cc1F` [Batabulin] was run?
Answer: C (C > 20%)

Question: And the IC50 (MV-4-11)?
Answer: ≤ 0.1 µM

Question: What about the IC50 (K562) of the same compound?
Answer: ≤ 0.1 µM

Question: And the IC50 (MOLM-13)?
Answer: ≤ 0.1 µM

Question: With `Nc1ncnc2c1c(-c1ccc(Oc3ccccc3)cc1)nn2[C@H]1CCCN(S(=O)(=O)c2c(F)c(F)c(F)c(F)c2F)C1` [Compound 5-2, (S)-1-(1-((perfluorophenyl)sulfonyl)piperidin-3-yl)-3-(4-phenoxyphenyl)-1H-pyrazolo[3,4-d]pyrimidin-4-amine] as the compound, how does the IC50 (BMX) read?
Answer: 0.0001 to 0.01 µM

Question: For `O=S(=O)(Nc1ccc(OC(F)(F)F)c(F)c1)c1c(F)c(F)c(F)c(F)c1F` [Compound 4-1, 2,3,4,5,6-pentafluoro-N-(3-fluoro-4-(trifluoromethoxy)phenyl)benzenesulfonamide], which “% inhibition of tubulin polymerization” value (tubulin) is on record?
Answer: B (B: 10-20%)

Question: And the IC50 (MV-4-11)?
Answer: 10 to 100 µM

Question: What about the IC50 (K562) of the same compound?
Answer: 10 to 100 µM

Question: And the IC50 (MOLM-13)?
Answer: 10 to 100 µM

Question: What does the source list for `Nc1ncnc2c1c(-c1ccc(Oc3ccccc3)cc1)nn2S(=O)(=O)c1c(F)c(F)c(F)c(F)c1F` [Compound 5-19, 1-((perfluorophenyl)sulfonyl)-3-(4-phenoxyphenyl)-1H-pyrazolo[3,4-d]pyrimidin-4-amine]?
Answer: IC50 (BMX): 0.01 to 0.3 µM; IC50 (RL cells): 1.64 µM

Question: Which results are given for `COCCOc1ccc(Nc2ncc(F)c(Nc3ccc(NS(=O)(=O)c4c(F)c(F)c(F)c(F)c4F)cc3)n2)cc1` [Compound 5-14, 2,3,4,5,6-pentafluoro-N-(4-((5-fluoro-2-((4-(2-methoxyethoxy)phenyl)amino)pyrimidin-4-yl)amino)phenyl)benzenesulfonamide]?
Answer: IC50 (FGFR4): 0.01 to 0.3 µM; IC50 (FGFR1): 0.01 to 0.3 µM

Question: Which IC50 (BMX) does the source give for `Nc1ncnc2c1c(-c1ccc(Oc3ccccc3)cc1)nn2CCNS(=O)(=O)c1c(F)c(F)c(F)c(F)c1F` [Compound 5-3, N-[2-[4-amino-3-(4-phenoxyphenyl)pyrazolo[3,4-d]pyrimidin-1-yl]ethyl]-2,3,4,5,6-pentafluoro-benzenesulfonamide] here?
Answer: 0.0001 to 0.01 µM

Question: What about the “C481 labelled by test compound (tryptic digest peptide)” value ([1]; 10 μM BTK KD) of the same compound?
Answer: ✓

Question: What about the “C527 labelled by test compound (tryptic digest peptide)” value ([1]; cysteine 527, 10 μM BTK KD) of the same compound?
Answer: ✓

Question: What does the source list for `O=S(=O)(Nc1ccc(OCF)c(F)c1)c1c(F)c(F)c(F)c(F)c1F` [Compound 4-6, 2,3,4,5,6-pentafluoro-N-(3-fluoro-4-(fluoromethoxy)phenyl)benzenesulfonamide]?
Answer: % inhibition of tubulin polymerization (tubulin): B (B: 10-20%); IC50 (MV-4-11): 0.1 to 10 µM; IC50 (K562): 0.1 to 10 µM; IC50 (MOLM-13): 0.1 to 10 µM

Question: How did the IC50 (MV-4-11) turn out when `O=S(=O)(Nc1ccc(Oc2ccccc2)cc1)c1c(F)c(F)c(F)c(F)c1F` [Compound 4-2, 2,3,4,5,6-pentafluoro-N-(4-phenoxyphenyl)benzenesulfonamide] was run?
Answer: 10 to 100 µM

Question: What about the IC50 (MOLM-13) of the same compound?
Answer: 10 to 100 µM
